Read-outs that look alike come from different tables or passages of the source. Where only a bound is given, the exact number is not on record here.

The test system of data set [1] is Mutul-Hp-Luc cells. The experiment in a line: microbe, parasite or virus in culture. It counts as cell-based, Epstein-Barr Virus (EBV). The text has this: BHLF1 promoter (Hp) or the BZ1F1 promoter (Zp) was cloned into pHEBO plasmid into Nhel and HindIII restriction sites of pHEBO-luc plasmid (Yates, 1985, Nature, 313:812-815; and Deng, 2001, J. Virol. 75:10334-10347). To create pHEBO-GFP, most of luciferase gene was excised by BsrGI and HindIII sites and replaced with EGFP excised from pEGFP-N1 (Clontech). Mutul cells were transfected with the new pHEBO-Zp-luc, pHEBO-Hp-luc (FIG. 8) or pHEBO-Hp-GFP constructs and transfected cells were selected with 400 μg/mL of Hygromycin. After 2 weeks of selection, stable hygromycin-resistant cells were seeded at 5000 per well in 384 well white plates and assayed as described below.
Columns 1, 2, 23, and 24 received DMSO (0.2% final concentration). The remaining 320 wells in columns 3-22 received test compounds at a final concentration of 10 μM cumulative concentration for the 5 compounds/2 μM individual compound concentration/0.2% final DMSO concentration. Cells were incubated with compounds for 48 h at 37° C./5% CO2. Twenty microliters of Steady-Glo® Luciferase Reagent (Promega) was added to assay plates and incubated for 15 minutes at room temperature. Plates were centrifuged and luminescence was measured on an EnVision® Excite multilabel microplate reader, using the ultrasensitive luminescence measurement technology (Perkin Elmer).
To confirm the activity of candidate compounds identified after deconvolution that exceeded the cutoff parameter, liquid stock from the screening library was retested as single compounds at a final concentration of 10 μM, using assay conditions identical to the primary high-throughput screen.
To eliminate confirmed actives that may interfere with the assay technology by inhibiting luciferase, the activity of the compounds were tested in a biochemical luciferase assay counterscreen (Auld, 2008, J. Med. Chem., 51:2372-2386). To quantitatively assess the activity and prioritize compounds for further follow-up, fresh liquid stocks prepared from powders were reformatted as a 10 point dilution series spanning at least 3-logs, starting at 10 μM, the initial screening concentration. Data for test compounds was normalized to DMSO and NaB (1 mM) plate controls to calculate fold stimulation and z-factor (σ is variance/standard deviations), μ is mean of positive (p) and negative (n) controls). Z-factor is a statistical measurement that assesses the quality of the assay and predicts if the assay can be useful in a high-throughput screening. Z factors above 0.5 are considered acceptable. The screen's Z-factor was above 0.
The relative EC50 for each compound, i.e., the concentration of compound that produced 50% of the maximum effect, was calculated using a […] non-linear regression analysis (GraphPad Prism® 6 software). Error bars represent SD for each concentration of a compound. To assist with decision making points, compound activities were stratified into 4 categories: […]

Data set [2] concerns p38 MAPK, S6, p90RSK and p53 phosphorylation in Mutul cells. The experiment in a line: immunoblot for phosphorylation of p38 MAPK, S6, p90RSK and p53. It counts as cell-based. The settings on record: 0.5 h. On the procedure: (§1) FIGS. 7A-C are gels illustrating the mechanism of EBV reactivation of the compounds in distinct from HDAC inhibitors and TPA. FIG. 7A is Mutul cells treated with 2% DMSO, 2 mM NaB, 20 ng/mL TPA, or 1 μM compound for 48 h, immunoblotted, and probed for acetylation of histone H3 and β-actin. FIG. 7B is Mutu-LCL352 cells treated and probed as in described in FIG. 7A. FIG. 7C is Mutul cells treated with controls or compounds for 0.5 h, immunoblotted, and probed for phosphorylated forms of p90RSK, p53, p38MAPK, S6, total MAPK, and β-actin.
Cells were incubated with DMSO, 2 mM sodium butyrate (NaB), […] 12-O-tetradecanoyl phorbol-13-acetate (TPA) or 1 μM of compounds for 72 h, washed in PBS once and lysed in 1×Laemmii buffer. Protein extract equivalent to 10^5 cells were loaded on 8-16% SDS-PAGE gels (Invitrogen) and transferred to nitrocellulose membranes (Millipore). Lytic reactivation was detected with a rabbit polyclonal anti-ZTA and mouse monoclonal anti-EA-D (Abcam) antibodies diluted in 5% evaporated milk and incubated with the membranes for 2 h at RT, or overnight at 4° C., followed by secondary anti-mouse or rabbit HRP-conjugated (Roche). Rabbit antibodies against phospho-p38 MAPK, -S6, -p90RSK and -p53 West Pico were mixed into a PathScan® cocktail (Cell Signaling). […]
(In general: A western blot detects proteins with antibodies after separation by electrophoresis.)

Data set [3] relates to Mutul cells. The experiment in a line: cell viability by trypan blue dye exclusion, with or without GCV. It counts as cell-based. To be noted: 6 days, compounds at 1 μM.
Method: Mutul-Hp-Luc were seeded at 0.2 million per mL and treated with Compound 4. Compound 4 was added again 48 h. Freshly made GCV was added on Day 2 for 4 days twice a day, in the morning and 8 h later. Cell viability was measured either with Resazurin 5 days after the first Compound 4 treatment, or the cells were stained with Trypan blue on Day 6. […] Live cells were counted by the Trypan Blue stain exclusion method. […] Different concentrations of Compound 4 combined with GCV (gray bars) or without GCV (black bars) were used. Cell viability was measured as a percentage of DMSO-treated control cells. 590 nm fluorescence values are proportionate to the cell viability. […] Daily viability assay for Mutul cells treated with either DMSO, NaB, compound 4 (0.5 μM) with or without GCV was measured.
It was tested whether combination of the newly identified activators and GCV would increase selective cell killing of EBV infected cells. […] Specifically, gangcyclovir (GCV) was combined with a sublethal dose of compounds (1 μM) to determine if it could induce cell death in Mutul cells after six days of treatment. Cell viability was measured by trypan blue dye exclusion.
For data set [4], the system named is EBV positive BL cells. The settings on record: cited from earlier work.
Data set [5] has as its system latent EBV. The settings on record: cited from earlier work.
The conditions of data set [6]: in vivo; cited from earlier work.
Data set [7] relates to Mutul-Hp-Luc cells. It is filed as cell-based, Epstein-Barr Virus (EBV).
The test system of data set [8] is EBV positive Mutul cells. The experiment in a line: resazurin cytotoxicity assay with or without GCV. A general note: Alamar Blue is a resazurin reagent that responds to reducing activity.
Method: Mutul-Hp-Luc were seeded at 0.2 million per mL and treated with Compound 4. Compound 4 was added again 48 h. Freshly made GCV was added on Day 2 for 4 days twice a day, in the morning and 8 h later. Cell viability was measured either with Resazurin 5 days after the first Compound 4 treatment, or the cells were stained with Trypan blue on Day 6. […] Live cells were counted by the Trypan Blue stain exclusion method. […] Different concentrations of Compound 4 combined with GCV (gray bars) or without GCV (black bars) were used. Cell viability was measured as a percentage of DMSO-treated control cells. 590 nm fluorescence values are proportionate to the cell viability. Cells tested include EBV-positive Mutul (FIG. 6C), Akata (FIG. 6D), DG75 (FIG. 6E), and Mutu-LCL352 (FIG. 6F). Daily viability assay for Mutul cells treated with either DMSO, NaB, compound 4 (0.5 μM) with or without GCV was measured.
Assay plates were prepared by seeding 25,000 Mutul cells in 50 μL of RPMI supplemented with 15% FBS in 384 well tissue culture plates (Nunc). […] Cells were incubated for 5 days at 37° C./5% CO2 and viability was monitored by the addition of 20 μL of 500 μM resazurin (Sigma) and incubation for 4 h at 37° C. Plates were centrifuged and fluorescence intensity was measured at 590 nm on an Envision® Xcite multilabel microplate reader (Perkin Elmer). […]
Data set [9] relates to histone H3 acetylation in Mutul and Mutu-LCL352 cells. The experiment in a line: immunoblot for acetylation of histone H3. It counts as cell-based. The settings on record: 48 h; 2 mM NaB or 1 μM compound. As for the experimental part:
as §1
Mutul and Mutu-LCL352 cell lines were used to test whether the newly identified EBV activators function as […] by increasing acetylation on histone H3.

Setting [10] is: human gammaherpesvirus 4, read-out: EC50 values.
[11] abbreviates: Mutul-Hp-Luc cells, up to 2 mM NaB.

On to `COc1ccc(C2NCCc3c2[nH]c2ccc(Cl)cc32)cc1` (centres unmarked) [Compound 11], for which, in data set [1] (human gammaherpesvirus 4, 48 h), the 50% effective concentration (EC50) is under 0.5 µM.

Consider `CCCCCCCCCCCCCC(=O)O[C@@H]1[C@@H](C)[C@@]2(O)[C@@H](C=C(CO)C[C@]3(O)C(=O)C(C)=C[C@@H]23)[C@@H]2C(C)(C)[C@]12OC(C)=O` [TPA, 12-O-tetradecanoyl phorbol-13-acetate], for which the “phosphorylation of p38 MAPK, S6, p90RSK and p53” value in data set [2] is reported as “increase in phosphorylation”. For the molecule `COC(=O)c1ccccc1NC(=O)N1CCc2c([nH]c3ccc(Cl)cc23)C1c1ccc(OC)cc1` (centres unmarked) [Compound 10], the EC50 was under 0.5 µM in [1] (human gammaherpesvirus 4, 48 h) and 0.05 to 0.2 µM in data set [1] (setting [10]).

`COc1ccc(C2c3[nH]c4ccc(Cl)cc4c3CCN2S(=O)(=O)c2ccccc2OC)cc1` (centres unmarked) [Compound 25] showed a concentration giving a half-maximal response (EC50) in [1] (human gammaherpesvirus 4, 48 h) of over 0.5 µM. With `Nc1nc(O)c2ncn(COC(CO)CO)c2n1` [GCV, gancyclovir], in data set [3], the “reduction of cell viability as single agent” value is −10%.

On to `CC(C)C[C@H](NC(=O)[C@H](Cc1ccccc1)NC(=O)c1cnccn1)B(O)O` [bortezomib], for which the “activation of latent EBV” value in data set [4] is on record as “activator of latent EBV in a limited number of EBV positive BL cells”. Consider `COc1ccc(C2c3[nH]c4ccc(Cl)cc4c3CCN2C(=O)c2ccccc2F)cc1` (centres unmarked) [Compound 13], for which the EC50 in data set [1] (human gammaherpesvirus 4, 48 h) was over 0.5 µM.

For `COc1ccc(C2c3[nH]c4ccc(Cl)cc4c3CCN2C(=O)c2ccccc2OC)cc1` (centres unmarked) [Compound 17], the 50% effective concentration (EC50) in data set [1] (human gammaherpesvirus 4, 48 h) was over 0.5 µM.

In the case of arginine butyrate, the “concentrations required to trigger the latent to lytic switch” value in data set [5] is on record as “millimolar concentrations”. In [6], the “efficacy in clinical trial” value is recorded as “efficacious” and the “tolerability in clinical trial” value is “not tolerated due to toxicity”. `COc1ccc(C2c3c(c4cc(Cl)ccc4n3C(=O)c3ccc(F)cc3)CCN2C(=O)c2ccc(F)cc2)cc1` (centres unmarked) [Compound 22]: the EC50 in data set [1] (human gammaherpesvirus 4, 48 h) is under 0.5 µM; in data set [1] (setting [10]), 0.05 to 0.2 µM. For `COc1ccc(C2c3[nH]c4ccc(Cl)cc4c3CCN2C(=O)c2ccccc2Cl)cc1` (centres unmarked) [Compound 14], the EC50 in data set [1] (human gammaherpesvirus 4, 48 h) was over 0.5 µM.

`COc1ccc(C2c3[nH]c4ccc(Cl)cc4c3CCN2C(=O)c2ccccc2C(F)(F)F)cc1` (centres unmarked) [Compound 16]: in data set [1] (human gammaherpesvirus 4, 48 h), the half-maximal effective concentration (EC50) was over 0.5 µM. The molecule `COc1ccc(C2c3[nH]c4ccc(Cl)cc4c3CCN2C(=O)c2ccc(C(F)(F)F)cc2)cc1` (centres unmarked) [Compound 20] showed an EC50 in data set [1] (human gammaherpesvirus 4, 48 h) of under 0.5 µM.

Turning to `COc1ccc(C2c3[nH]c4ccc(Cl)cc4c3CCN2C(=O)c2c(Cl)cccc2Cl)cc1` (centres unmarked) [Compound 15], the EC50 in data set [1] (human gammaherpesvirus 4, 48 h) is over 0.5 µM. On to `COc1ccc(C2c3[nH]c4ccc(Cl)cc4c3CCN2C(=O)c2cccc(OC)c2)cc1` (centres unmarked) [Compound 12], for which the EC50 in data set [1] (human gammaherpesvirus 4, 48 h) is under 0.5 µM; in data set [1] (setting [10]), 0.05 to 0.2 µM.

With `COc1ccc(C2c3c(c4cc(Cl)ccc4n3C(=O)c3ccc(Cl)cc3)CCN2C(=O)c2ccc(F)cc2)cc1` (centres unmarked) [Compound 23], in [1] (human gammaherpesvirus 4, 48 h), the half-maximal effective concentration (EC50) is over 0.5 µM. On the same count and under the same terms, with `COc1ccc(C2c3[nH]c4ccc(Cl)cc4c3CCN2C(=O)c2ccc(F)cc2)cc1` (centres unmarked) [Compound 18] the figure was over 0.5 µM. Consider `CCCC(=O)[O-].[Na+]` [NaB, sodium butyrate], for which, in data set [7] (2 mM NaB, longer periods than 48 h), the “cell viability on longer exposure” value is “loss of cell viability”. Moreover, in data set [7] (setting [11]), the cell toxicity result is given as “relatively low cell toxicity” and the signal-to-background is 20-40 fold. The “luciferase response to NaB” value in data set [7] (pHEBO-Hp-Luc in Mutul cells, 2 mM NaB vs DMSO) was over 20 fold. In addition, the “concentrations required to trigger the latent to lytic switch” value in data set [5] is listed as “millimolar concentrations”. Besides, the “synergy with GCV on killing EBV-positive cells” value in [8] (Mutul cells, combination with 10 μg/mL GCV) was “did not synergize with GCV”. Further, the toxicity to cells entry in [8] (with or without GCV, daily resazurin) is “toxic to cells regardless of EBV positive status”. In data set [6], the pharmacokinetics result is given as “unsuitable pharmacokinetics”. For the same molecule, in data set [9], the “acetylation of histone H3” value is reported as “caused histone acetylation in both cell lines”.

In the case of `COc1ccc(C(=O)N2CCc3c([nH]c4ccc(Cl)cc34)C2c2ccc(OC)cc2)cc1` (centres unmarked) [Compound 21], the half-maximal effective concentration (EC50) in [1] (human gammaherpesvirus 4, 48 h) is under 0.5 µM; in data set [1] (setting [10]), 0.05 to 0.2 µM.

Turning to `COc1ccc(C2c3[nH]c4ccc(Cl)cc4c3CCN2S(=O)(=O)c2ccc(OC)cc2)cc1` (centres unmarked) [Compound 26], the half-maximal effective concentration (EC50) in [1] (human gammaherpesvirus 4, 48 h) is over 0.5 µM.

The molecule `COc1ccc(C2c3[nH]c4ccc(Cl)cc4c3CCN2C(=O)c2ccc(Cl)cc2)cc1` (centres unmarked) [Compound 19] displayed an EC50 in data set [1] (human gammaherpesvirus 4, 48 h) of under 0.5 µM.

What is called EC50 is the concentration that produces a half-maximal response.
